Structures can show the parent of a compound that is named as a salt. Where two headings read alike, the source gives them in different places.
Assays:
[1] = tested on: Vesicular stomatitis virus (VSV); format: cell-based
Yersinia enterocolitica = format: cell-based
physchem [2] = details: buffer
physchem [3] = details: pH 7
[4] = tested on: murine red blood cells (RBCs); details: mouse, in vivo
cell-free HIV-IIIB = format: cell-based; details: for Log Kill / Log Titer: no PIC-1, GSH 30 mM
red blood cell membranes = details: 3 mM Glutathione added to PRBCs
Method: The concentration of GSH was calculated based on the absorbance at 412 nm using a Beckman DU20 (Beckman, Irvine, Calif.) single wavelength spectrometer.

[5] = tested on: Staphylococcus epidermidis; format: cell-based

O=S(=O)(O)CCS [MENSA, mercaptoethanesulfonic acid sodium salt]
Log Kill [1]: 2.3 log

N[C@@H](CS)C(=O)O [cysteine]
Log Kill (Yersinia enterocolitica): 0 log | Log Titer (Yersinia enterocolitica): 7.4 log

O=C(CCNc1c2ccccc2nc2ccccc12)OCCN(CCCl)CCCl [PIC-1, β-alanine, N-(acridin-9-yl), 2-[bis(2-chloroethyl)amino]ethyl ester]
half-life (physchem [2]; pH 2.2): 450 min | half-life (physchem [2]; pH 6): 25 min | half-life (physchem [3]): 32 min

O=C(CCNc1c2ccccc2nc2ccccc12)NCCN(CCCl)CCCl [PIC-2, P-alanine, N-(acridin-9-yl), 2-[bis(2-chloroethyl)amino]ethyl amide]
RBC survival compared to control [4]: substantially the same as control | recovery or lifespan of treated RBCs compared to label-only controls [4]: No difference

N[C@@H](CCC(=O)N[C@@H](CS)C(=O)NCC(=O)O)C(=O)O [glutathione]
Log Kill (Yersinia enterocolitica): 0 log | Log Titer (Yersinia enterocolitica): 7.4 log | reduction of inactivation (Yersinia enterocolitica): 1 to 2 log kill | reduction of HIV infectivity (cell-free HIV-IIIB; 30 mM glutathione alone (samples 2 and 4 compared to samples 1 and 3)): 0.3 to 0.6 logs | Log Kill (cell-free HIV-IIIB; 12 hour incubation (sample 4)): 0.6 log | Log Titer (cell-free HIV-IIIB; 12 hour incubation (sample 4)): 6.4 log | Log Kill (cell-free HIV-IIIB; no incubation (sample 2)): 0.3 log | Log Titer (cell-free HIV-IIIB; no incubation (sample 2)): 6.9 log | Absorption 412 nm Supernatant (red blood cell membranes; Time 0 min): 0.33 | Absorption 412 nm Total (red blood cell membranes; Time 0 min): 0.230 | GSH Concentration Supernatant (red blood cell membranes; Time 0 min): 3.071 mM | GSH Concentration Total (red blood cell membranes; Time 0 min): 5.286 mM | Absorption 412 nm Supernatant (red blood cell membranes; Time 60 min): 0.318 | Absorption 412 nm Total (red blood cell membranes; Time 60 min): 0.227 | GSH Concentration Supernatant (red blood cell membranes; Time 60 min): 2.96 mM | GSH Concentration Total (red blood cell membranes; Time 60 min): 5.217 mM | Absorption 412 nm Supernatant (red blood cell membranes; Time 120 min): 0.312 | Absorption 412 nm Total (red blood cell membranes; Time 120 min): 0.231 | GSH Concentration Supernatant (red blood cell membranes; Time 120 min): 2.90 mM | GSH Concentration Total (red blood cell membranes; Time 120 min): 5.308 mM | Absorption 412 nm Supernatant (red blood cell membranes; Time 270 min): 0.306 | Absorption 412 nm Total (red blood cell membranes; Time 270 min): 0.213 | GSH Concentration Supernatant (red blood cell membranes; Time 270 min): 2.85 mM | GSH Concentration Total (red blood cell membranes; Time 270 min): 4.898 mM | Absorption 412 nm Supernatant (red blood cell membranes; Time 1080 min): 0.297 | Absorption 412 nm Total (red blood cell membranes; Time 1080 min): 0.227 | GSH Concentration Supernatant (red blood cell membranes; Time 1080 min): 2.77 mM | GSH Concentration Total (red blood cell membranes; Time 1080 min): 5.217 mM | Absorption 412 nm Supernatant (red blood cell membranes; Time 1440 min): 0.296 | Absorption 412 nm Total (red blood cell membranes; Time 1440 min): 0.220 | GSH Concentration Supernatant (red blood cell membranes; Time 1440 min): 2.76 mM | GSH Concentration Total (red blood cell membranes; Time 1440 min): 5.058 mM | recovery or lifespan of treated RBCs compared to label-only controls [4]: No difference | Log Kill [5]: 0 log | Log Titer [5]: 7.5 log
